Data taken from patent publication US20210260022A1, “SYNERGY FOR INCREASING ENERGY EXPENDITURE AND INSULIN SENSITIVITY” (The Board of Supervisors of Louisiana State University and …, priority 2018, published 2021).

Legend:
human adipocytes [1] = assay: qRT-PCR in human adipocytes (hADSC) treated two days with naringenin and inhibitors; format: cell-based; details: 2d treatment
Method: Human white adipocytes were treated for 2d with naringenin in the presence of inhibitors of metabolic pathways to determine the mechanism of action for stimulating fat oxidation and thermogenic energy expenditure.
Naringenin increased UCP1 and CPT1β mRNA induction compared to control (p<0.001). PPARα and PPARγ inhibition reduced UCP1 and CPT1β mRNA expression (p<0.001). Each experiment was conducted with three biological replicates and four technical replicates.
The whole orange extract was dissolved in DMSO at 15 mM (based on 28% naringenin content) and added to cells at a dilution of 1:500 to achieve a final concentration of 30 μM. The inhibitors added to the naringenin-treated cells included: peroxisome proliferator-activated receptor alpha (PPARα) antagonist GW6471 and peroxisome proliferator-activated receptor gamma (PPARγ) antagonist GW9662 (Cayman Chemical, Ann Arbor, Mich.) at 10 μM concentration, protein kinase A (PKA) inhibitor H89 (Millipore Sigma, Burlington, Mass.) at 20 μM concentration, and protein kinase G (PKG) inhibitor […] (Biolog Life Science Institute, AXXORA, LLC, Farmingdale, N.Y.) at 50 μM concentration. GW6471 and GW9662 were dissolved in DMSO at 1000×, H89 was dissolved in PBS at 500×, and Rp-8-pCPT-cGMPS was dissolved in PBS at 100× prior to dilution in cell culture medium. Following a two-day treatment, the cells were harvested with Trizol reagent. RNeasy Mini Kit (Qiagen, Germantown, Md.) was used to isolate total RNA following manufacturer's protocol. The expression of UCP1, CPT1β, and GLUT4 was quantified with one-step reverse transcriptase PCR using the reverse PCR primer to prime cDNA synthesis as previously described.^6

human adipocytes [2] = assay: Acute agonist-stimulated lipolysis (glycerol release) in untreated and NRBC-treated adipocytes; format: cell-based; details: 4.5 hour agonist exposure
Method: Acute agonist-stimulated glycerol release in untreated and NRBC-treated adipocytes. After 7d treatment with vehicle or NRBC, cells were exposed to receptor agonists dissolved in KRB with 1% BSA for 4.5 hours. Supernatants were removed for measurement of glycerol.
On the day of the acute lipolysis assay, cell cultures were rinsed with KRB to remove serum and exposed to the individual receptor agonists in KRB. Lipolysis was measured as glycerol released into the cell supernatant over 4.5 hour of agonist exposure. Non-hydrolyzable cAMP was also evaluated in each experiment as a positive control to measure the maximum capacity for PKA-stimulated lipolysis.

human adipocytes [3] = assay: UCP1 mRNA in human adipocytes, naringenin combined with other botanical compounds; format: cell-based; details: 5 μM naringenin in combination
Method: Human adipocytes were treated with 5 μM naringenin or with naringenin in combination with other botanical compounds to evaluate synergy in inducing UCP1 mRNA expression. A range of other botanical compounds such as […]

mice [4] = details: 150 mg/kg/day dietary; cited from earlier work
[5] = 4 mg/day, six months, obese children; cited from earlier work
human adipocytes [6] = assay: mRNA expression (Taqman RT-PCR) in differentiated human adipocytes after 7 day treatment; format: cell-based; details: for UCP1 and GLUT4 expression, carotenoid alone: 2 μM carotenoid; for UCP1 and GLUT4 expression, carotenoid alone / UCP1 and GLUT4 expression, carotenoid in combination with naringenin extract: seven days; for UCP1 and GLUT4 expression, carotenoid in combination with naringenin extract: 8 μM naringenin extract + 2 μM carotenoid; for gene expression, carotenoid in combination with NR: compared with BC + NR
mice [7] = details: 100 mg/kg injected daily; cited from earlier work

With `CCC(=O)NC[C@H](Cc1ccc(OCCc2nc(-c3ccccc3)oc2C)cc1)N/C(C)=C\C(=O)c1ccc(C(F)(F)F)cc1` [GW6471, reference compound] the “Induction of UCP1 and CPT-1b by naringenin in the presence of the inhibitor” value (“Induction of UCP1 and CPT-1b … of the inhibitor” below) (human adipocytes [1]) was “abolished”.
For “PTH: parathyroid hormone (1-34) (SVSEIQLMHNLGKHLNSMERVEWLRKKLQDVHNF; Parathyroid hormone; UniProt P01270 32-65, looked up, fragment)”, the “lipolysis stimulated by the agonist (glycerol release)” value (from here on “lipolysis stimulated by the agonist”) (human adipocytes [2]) was “highest levels of lipolysis”.
For `O=C(Nc1ccccc1)c1cc([N+](=O)[O-])ccc1Cl` [GW9661, reference compound], the “Induction of UCP1 and CPT-1b … of the inhibitor” value (human adipocytes [1]) was “abolished”.
In the case of `CCCCCCCC/C=C\CCCCCCCC(=O)NCCO` [OEA, oleoylethanolamide], the “synergy with naringenin in increasing UCP1 mRNA levels” value (human adipocytes [3]) is reported as “did not synergize”.
In the case of `CC1=C(/C=C/C(C)=C/C=C/C(C)=C/C=C/C=C(C)/C=C/C=C(C)/C=C/C2=C(C)CCCC2(C)C)C(C)(C)CCC1` [beta carotene, β-Carotene], the “adiposity, food intake, bodyweight” value (mice [4]) is listed as “reduced adiposity without altering food intake or bodyweight”, the “BMI z-score, subcutaneous and visceral adipose tissue, waist circumference” value [5] is listed as “reduction in BMI z-score, subcutaneous adipose tissue, visceral adipose tissue, waist circumference” and the insulin sensitivity [5] is listed as “improved insulin sensitivity”. The “UCP1 and GLUT4 expression, carotenoid alone” value (human adipocytes [6]) was “no effect” and the “RNA expression of uncoupling protein-1, adipose tissue glyceride lipase and adiponectin” value (human adipocytes [6]; beta carotene at 1 micromolar) was “increase RNA expression”.
For `CC(CCc1ccc(O)cc1)NCCc1ccc(O)c(O)c1` (stereo not shown) [dobutamine], the “lipolysis stimulated by the agonist” value (human adipocytes [2]) was “comparable to isoproterenol”.
In the case of `CC1=C[C@H](O)CC(C)(C)[C@H]1/C=C/C(C)=C/C=C/C(C)=C/C=C/C=C(C)/C=C/C=C(C)/C=C/C1=C(C)C[C@@H](O)CC1(C)C` [lutein, Lutein], the “UCP1 and GLUT4 expression, carotenoid alone” value (human adipocytes [6]) is reported as “no effect”, the “UCP1 and GLUT4 expression, carotenoid in combination with naringenin extract” value (human adipocytes [6]) is reported as “act synergistically” and the “gene expression, carotenoid in combination with NR” value (human adipocytes [6]) is reported as “synergistic effect”.
In the case of `CC12CCC(CC1)C(C)(C)O2` [Ecalyptol], the “synergy with naringenin in increasing UCP1 mRNA levels” value (human adipocytes [3]) is reported as “did not synergize”.
For `CC(C)=CCC/C(C)=C/C=C/C(C)=C/C=C/C(C)=C/C=C/C=C(C)/C=C/C=C(C)/C=C/C=C(\C)CCC=C(C)C` [lycopene, Lycopene], the “UCP1 and GLUT4 expression, carotenoid alone” value (human adipocytes [6]) was “no effect”, the “UCP1 and GLUT4 expression, carotenoid in combination with naringenin extract” value (human adipocytes [6]) was “act synergistically” and the “gene expression, carotenoid in combination with NR” value (human adipocytes [6]) was “synergistic effect”.
For `CC1=C(/C=C/C(C)=C/C=C/C(C)=C/C(=O)O)C(C)(C)CCC1` [atRA, All-trans retinoic acid], the “body weight and adiposity” value (mice [7]) is listed as “reduction in body weight and adiposity”.
With `Nc1ncnc2c1ncn2[C@@H]1O[C@@H]2COP(=O)(O)O[C@H]2[C@H]1O` [Cyclic AMP] the “lipolysis stimulated by the agonist” value (human adipocytes [2]) was “greater lipolysis activity than any individual receptor ligand”.
With `Nc1nc2c(nc(Sc3ccc(Cl)cc3)n2[C@@H]2O[C@@H]3CO[P@@](=O)(S)O[C@H]3[C@H]2O)c(=O)[nH]1` [Biolog C013, reference compound] the “Induction of UCP1 and CPT-1b … of the inhibitor” value (human adipocytes [1]) was “unaffected”.
With `O=S(=O)(NCCNC/C=C/c1ccc(Br)cc1)c1cccc2cnccc12` [H89, reference compound] the “Induction of UCP1 and CPT-1b … of the inhibitor” value (human adipocytes [1]) was “partially reduced”.
For `CC[C@H](C)[C@@H]1NC(=O)[C@H](CCCNC(=N)N)NC(=O)[C@H](CC(=O)O)NC(=O)[C@H](CCSC)NC(=O)[C@H](CCCNC(=N)N)NC(=O)CNC(=O)CNC(=O)[C@H](Cc2ccccc2)NC(=O)[C@@H](NC(=O)[C@H](CO)NC(=O)[C@H](CO)NC(=O)[C@H](CCCNC(=N)N)NC(=O)[C@H](CCCNC(=N)N)NC(=O)[C@H](CC(C)C)NC(=O)[C@@H](N)CO)CSSC[C@@H](C(=O)N[C@@H](CC(N)=O)C(=O)N[C@@H](CO)C(=O)N[C@@H](Cc2ccccc2)C(=O)N[C@@H](CCCNC(=N)N)C(=O)N[C@@H](Cc2ccc(O)cc2)C(=O)O)NC(=O)CNC(=O)[C@H](CC(C)C)NC(=O)CNC(=O)[C@H](CO)NC(=O)[C@H](CCC(N)=O)NC(=O)[C@H](C)NC(=O)CNC1=O` [ANP], the “lipolysis stimulated by the agonist” value (human adipocytes [2]) was “highest levels of lipolysis”.
